In article PMC4917279 (Journal of Medicinal Chemistry, 2016):

Tests used:
ERK4 = molecular target: T1, ERK4 (Homo sapiens, UniProt P31152); assay: KINOMEscan; assay type: binding; settings: read-out: %Ctrl @ 1000 nM
T1 construct: purchased DiscoveRx KINOMEscan

PYK2 = molecular target: T2, PYK2 (Homo sapiens, UniProt Q14289); assay: KINOMEscan; assay type: binding; settings: read-out: %Ctrl @ 1000 nM
T2 construct: purchased DiscoveRx KINOMEscan

PIP5K1A = molecular target: T3, PIP5K1A (Homo sapiens, UniProt Q99755); assay: KINOMEscan; assay type: binding; settings: read-out: %Ctrl @ 1000 nM
T3 construct: purchased DiscoveRx KINOMEscan

CSNK2A2 = molecular target: T4, CSNK2A2 (Homo sapiens, UniProt P19784); assay: KINOMEscan; assay type: binding; settings: read-out: %Ctrl @ 1000 nM
T4 construct: purchased DiscoveRx KINOMEscan

ULK2 = molecular target: T5, ULK2 (Homo sapiens, UniProt Q8IYT8); assay: KINOMEscan; assay type: binding; settings: read-out: %Ctrl @ 1000 nM
T5 construct: purchased DiscoveRx KINOMEscan
T5 sequence (Q8IYT8 whole entry): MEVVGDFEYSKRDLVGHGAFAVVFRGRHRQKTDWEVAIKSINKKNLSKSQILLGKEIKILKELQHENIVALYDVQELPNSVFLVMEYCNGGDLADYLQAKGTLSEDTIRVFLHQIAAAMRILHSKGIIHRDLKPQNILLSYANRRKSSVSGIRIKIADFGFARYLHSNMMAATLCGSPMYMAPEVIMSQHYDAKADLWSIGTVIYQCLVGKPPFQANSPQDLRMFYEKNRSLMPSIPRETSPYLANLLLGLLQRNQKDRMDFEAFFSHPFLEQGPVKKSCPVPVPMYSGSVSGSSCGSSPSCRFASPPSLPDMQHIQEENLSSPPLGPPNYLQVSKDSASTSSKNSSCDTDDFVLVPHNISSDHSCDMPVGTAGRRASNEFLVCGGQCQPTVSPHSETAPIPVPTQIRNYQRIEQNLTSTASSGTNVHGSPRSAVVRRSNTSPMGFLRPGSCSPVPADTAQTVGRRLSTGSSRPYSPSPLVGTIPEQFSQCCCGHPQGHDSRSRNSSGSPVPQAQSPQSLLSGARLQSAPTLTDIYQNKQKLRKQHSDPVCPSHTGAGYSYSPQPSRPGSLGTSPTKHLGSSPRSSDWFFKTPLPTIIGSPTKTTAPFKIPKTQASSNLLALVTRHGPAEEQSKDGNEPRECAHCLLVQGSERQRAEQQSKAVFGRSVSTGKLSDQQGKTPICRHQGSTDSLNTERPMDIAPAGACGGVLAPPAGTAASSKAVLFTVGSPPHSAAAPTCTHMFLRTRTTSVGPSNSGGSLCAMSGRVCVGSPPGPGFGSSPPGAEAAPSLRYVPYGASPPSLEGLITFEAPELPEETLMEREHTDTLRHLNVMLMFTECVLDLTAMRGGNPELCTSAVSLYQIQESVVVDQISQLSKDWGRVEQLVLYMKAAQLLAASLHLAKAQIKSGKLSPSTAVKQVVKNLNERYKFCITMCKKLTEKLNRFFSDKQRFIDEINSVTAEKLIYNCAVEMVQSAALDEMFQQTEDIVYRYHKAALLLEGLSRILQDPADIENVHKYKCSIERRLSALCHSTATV

INSRR = molecular target: T6, INSRR (Homo sapiens, UniProt P14616); assay: KINOMEscan; assay type: binding; settings: read-out: %Ctrl @ 1000 nM
T6 construct: purchased DiscoveRx KINOMEscan

EPHB6 = molecular target: T7, EPHB6 (Homo sapiens, UniProt O15197); assay: KINOMEscan; assay type: binding; settings: read-out: %Ctrl @ 1000 nM
T7 construct: purchased DiscoveRx KINOMEscan
T7 sequence (O15197 32-1021): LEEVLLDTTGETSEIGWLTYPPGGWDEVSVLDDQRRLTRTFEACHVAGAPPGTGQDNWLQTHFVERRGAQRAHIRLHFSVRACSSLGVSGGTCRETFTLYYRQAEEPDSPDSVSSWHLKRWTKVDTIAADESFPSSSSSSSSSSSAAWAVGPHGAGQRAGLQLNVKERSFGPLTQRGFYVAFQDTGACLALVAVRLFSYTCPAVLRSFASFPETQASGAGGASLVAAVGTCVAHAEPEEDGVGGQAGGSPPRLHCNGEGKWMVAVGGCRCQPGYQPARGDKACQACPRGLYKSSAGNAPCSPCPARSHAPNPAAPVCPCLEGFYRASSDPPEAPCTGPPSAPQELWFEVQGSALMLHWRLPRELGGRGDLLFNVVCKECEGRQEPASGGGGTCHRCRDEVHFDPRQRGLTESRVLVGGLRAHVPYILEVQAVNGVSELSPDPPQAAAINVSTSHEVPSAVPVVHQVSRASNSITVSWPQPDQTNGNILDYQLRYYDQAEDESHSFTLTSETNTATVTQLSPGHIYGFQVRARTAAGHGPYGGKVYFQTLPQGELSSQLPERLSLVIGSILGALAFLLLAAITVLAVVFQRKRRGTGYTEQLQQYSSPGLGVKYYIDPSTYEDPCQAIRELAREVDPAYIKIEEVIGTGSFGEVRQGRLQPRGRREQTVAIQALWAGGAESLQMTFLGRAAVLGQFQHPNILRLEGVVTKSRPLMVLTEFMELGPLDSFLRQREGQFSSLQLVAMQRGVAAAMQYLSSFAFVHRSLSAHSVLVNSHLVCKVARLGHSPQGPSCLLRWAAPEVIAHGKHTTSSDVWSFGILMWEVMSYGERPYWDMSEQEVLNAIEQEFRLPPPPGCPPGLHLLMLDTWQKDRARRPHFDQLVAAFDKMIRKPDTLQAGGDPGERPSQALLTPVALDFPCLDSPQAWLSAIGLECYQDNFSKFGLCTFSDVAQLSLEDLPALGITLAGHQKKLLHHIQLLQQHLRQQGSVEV

CAMK1D = molecular target: T8, CAMK1D (Homo sapiens, UniProt Q8IU85); assay: KINOMEscan; assay type: binding; settings: read-out: %Ctrl @ 1000 nM
T8 construct: purchased DiscoveRx KINOMEscan

FLT3-autoinhibited = molecular target: T9, FLT3-autoinhibited (Homo sapiens, UniProt P36888); assay: KINOMEscan; assay type: binding; settings: read-out: %Ctrl @ 1000 nM
T9 construct: purchased DiscoveRx KINOMEscan

CSNK1D = molecular target: T10, CSNK1D (Homo sapiens, UniProt P48730); assay: KINOMEscan; assay type: binding; settings: read-out: %Ctrl @ 1000 nM
T10 construct: purchased DiscoveRx KINOMEscan
T10 sequence (P48730 whole entry): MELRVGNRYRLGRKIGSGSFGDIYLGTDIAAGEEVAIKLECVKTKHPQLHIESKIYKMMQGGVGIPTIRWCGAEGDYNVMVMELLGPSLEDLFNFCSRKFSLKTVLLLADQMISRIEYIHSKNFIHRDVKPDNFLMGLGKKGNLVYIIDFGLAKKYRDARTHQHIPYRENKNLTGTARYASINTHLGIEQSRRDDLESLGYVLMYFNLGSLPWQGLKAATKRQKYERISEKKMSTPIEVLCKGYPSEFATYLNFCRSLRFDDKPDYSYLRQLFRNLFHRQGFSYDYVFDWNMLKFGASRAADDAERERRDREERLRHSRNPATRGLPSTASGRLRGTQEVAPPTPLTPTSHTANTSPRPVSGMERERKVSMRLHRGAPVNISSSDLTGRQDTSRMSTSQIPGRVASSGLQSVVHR

[1] = molecular target: T11, ABL1(Y253F)-phosphorylated (Homo sapiens, UniProt P00519, Y253F); assay: KINOMEscan; assay type: binding; settings: read-out: %Ctrl @ 1000 nM
T11 construct: purchased DiscoveRx

MET(Y1235D) = molecular target: T12, MET(Y1235D) (Homo sapiens, UniProt P08581, Y1235D); assay: KINOMEscan; assay type: binding; settings: read-out: %Ctrl @ 1000 nM
T12 construct: purchased DiscoveRx KINOMEscan

[2] = Exposure and tolerability after oral administration to mice; assay type: in vivo; settings: 10–100 mg/kg po qd
NDR2 = molecular target: T13, NDR2 (Homo sapiens, UniProt Q9Y2H1); assay: KINOMEscan; assay type: binding; settings: read-out: %Ctrl @ 1000 nM
T13 construct: purchased DiscoveRx KINOMEscan
T13 sequence (Q9Y2H1 whole entry): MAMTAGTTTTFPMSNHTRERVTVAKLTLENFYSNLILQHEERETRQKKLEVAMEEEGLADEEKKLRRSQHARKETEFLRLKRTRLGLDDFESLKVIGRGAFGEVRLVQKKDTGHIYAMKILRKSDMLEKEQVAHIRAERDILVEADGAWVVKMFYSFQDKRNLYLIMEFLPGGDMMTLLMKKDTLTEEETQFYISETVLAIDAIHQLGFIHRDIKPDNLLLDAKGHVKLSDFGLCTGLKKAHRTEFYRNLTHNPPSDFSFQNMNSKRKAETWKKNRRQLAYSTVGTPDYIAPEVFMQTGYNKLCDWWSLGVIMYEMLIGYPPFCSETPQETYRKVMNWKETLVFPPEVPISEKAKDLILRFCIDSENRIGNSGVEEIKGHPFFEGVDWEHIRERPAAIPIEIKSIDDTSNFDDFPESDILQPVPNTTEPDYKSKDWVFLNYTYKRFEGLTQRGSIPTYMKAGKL

NEK2 = molecular target: T14, NEK2 (Homo sapiens, UniProt P51955); assay: KINOMEscan; assay type: binding; settings: read-out: %Ctrl @ 1000 nM
T14 construct: purchased DiscoveRx KINOMEscan

YANK3 = molecular target: T15, YANK3 (Homo sapiens, UniProt Q86UX6); assay: KINOMEscan; assay type: binding; settings: read-out: %Ctrl @ 1000 nM
T15 construct: purchased DiscoveRx KINOMEscan

CSNK1A1L = molecular target: T16, CSNK1A1L (Homo sapiens, UniProt Q8N752); assay: KINOMEscan; assay type: binding; settings: read-out: %Ctrl @ 1000 nM
T16 construct: purchased DiscoveRx KINOMEscan

FLT4 = molecular target: T17, FLT4 (Homo sapiens, UniProt P35916); assay: KINOMEscan; assay type: binding; settings: read-out: %Ctrl @ 1000 nM
T17 construct: purchased DiscoveRx KINOMEscan

MKNK2 = molecular target: T18, MKNK2 (Homo sapiens, UniProt Q9HBH9); assay: KINOMEscan; assay type: binding; settings: read-out: %Ctrl @ 1000 nM
T18 construct: purchased DiscoveRx KINOMEscan
T18 sequence (Q9HBH9 whole entry): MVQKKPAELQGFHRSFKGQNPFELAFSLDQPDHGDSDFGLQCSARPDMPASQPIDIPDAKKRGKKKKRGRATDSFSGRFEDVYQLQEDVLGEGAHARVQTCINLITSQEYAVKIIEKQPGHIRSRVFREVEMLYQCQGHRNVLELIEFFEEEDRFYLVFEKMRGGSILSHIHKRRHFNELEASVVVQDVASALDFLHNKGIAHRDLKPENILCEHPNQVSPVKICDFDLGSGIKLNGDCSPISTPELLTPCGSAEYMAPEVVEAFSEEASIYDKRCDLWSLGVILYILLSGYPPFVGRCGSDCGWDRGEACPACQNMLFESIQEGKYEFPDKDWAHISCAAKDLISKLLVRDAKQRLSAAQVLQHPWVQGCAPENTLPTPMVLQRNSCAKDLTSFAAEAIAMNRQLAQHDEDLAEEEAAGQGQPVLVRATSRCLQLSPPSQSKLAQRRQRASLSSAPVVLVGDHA

PAK1 = molecular target: T19, PAK1 (Homo sapiens, UniProt Q13153); assay: KINOMEscan; assay type: binding; settings: read-out: %Ctrl @ 1000 nM
T19 construct: purchased DiscoveRx KINOMEscan

IKK-epsilon = molecular target: T20, IKK-epsilon (Homo sapiens, UniProt Q14164); assay: KINOMEscan; assay type: binding; settings: read-out: %Ctrl @ 1000 nM
T20 construct: purchased DiscoveRx KINOMEscan

ERBB4 = molecular target: T21, ERBB4 (Homo sapiens, UniProt Q15303); assay: KINOMEscan; assay type: binding; settings: read-out: %Ctrl @ 1000 nM
T21 construct: purchased DiscoveRx KINOMEscan

STK35 = molecular target: T22, STK35 (Homo sapiens, UniProt Q8TDR2); assay: KINOMEscan; assay type: binding; settings: read-out: %Ctrl @ 1000 nM
T22 construct: purchased DiscoveRx KINOMEscan

DCAMKL2 = molecular target: T23, DCAMKL2 (Homo sapiens, UniProt Q8N568); assay: KINOMEscan; assay type: binding; settings: read-out: %Ctrl @ 1000 nM
T23 construct: purchased DiscoveRx KINOMEscan

SRMS = molecular target: T24, SRMS (Homo sapiens, UniProt Q9H3Y6); assay: KINOMEscan; assay type: binding; settings: read-out: %Ctrl @ 1000 nM
T24 construct: purchased DiscoveRx KINOMEscan

HIPK1 = molecular target: T25, HIPK1 (Homo sapiens, UniProt Q86Z02); assay: KINOMEscan; assay type: binding; settings: read-out: %Ctrl @ 1000 nM
T25 construct: purchased DiscoveRx KINOMEscan

SBK1 = molecular target: T26, SBK1 (Homo sapiens, UniProt Q52WX2); assay: KINOMEscan; assay type: binding; settings: read-out: %Ctrl @ 1000 nM
T26 construct: purchased DiscoveRx KINOMEscan

[3] = molecular target: T27, ABL1(E255K)-phosphorylated (Homo sapiens, UniProt P00519, E255K); assay: KINOMEscan; assay type: binding; settings: read-out: %Ctrl @ 1000 nM
T27 construct: purchased DiscoveRx (KINOMEscan service)

TNK2 = molecular target: T28, TNK2 (Homo sapiens, UniProt Q07912); assay: KINOMEscan; assay type: binding; settings: read-out: %Ctrl @ 1000 nM
T28 construct: purchased DiscoveRx KINOMEscan

FGFR1 = molecular target: T29, FGFR1 (Homo sapiens, UniProt P11362); assay: KINOMEscan; assay type: binding; settings: read-out: %Ctrl @ 1000 nM
T29 construct: purchased DiscoveRx KINOMEscan

FLT3(K663Q) = molecular target: T30, FLT3(K663Q) (Homo sapiens, UniProt P36888, K663Q); assay: KINOMEscan; assay type: binding; settings: read-out: %Ctrl @ 1000 nM
T30 construct: purchased DiscoveRx KINOMEscan

PHKG1 = molecular target: T31, PHKG1 (Homo sapiens, UniProt Q16816); assay: KINOMEscan; assay type: binding; settings: read-out: %Ctrl @ 1000 nM
T31 construct: purchased DiscoveRx KINOMEscan

HASPIN = molecular target: T32, HASPIN (Homo sapiens, UniProt Q8TF76); assay: KINOMEscan; assay type: binding; settings: read-out: %Ctrl @ 1000 nM
T32 construct: purchased DiscoveRx KINOMEscan

[4] = molecular target: T33, RSK2(Kin.Dom.2-C-terminal) (Homo sapiens, UniProt P51812); assay: KINOMEscan; assay type: binding; settings: read-out: %Ctrl @ 1000 nM
T33 construct: RSK2(Kin.Dom.2-C-terminal); purchased DiscoveRx KINOMEscan

NEK5 = molecular target: T34, NEK5 (Homo sapiens, UniProt Q6P3R8); assay: KINOMEscan; assay type: binding; settings: read-out: %Ctrl @ 1000 nM
T34 construct: purchased DiscoveRx KINOMEscan
T34 sequence (Q6P3R8 whole entry): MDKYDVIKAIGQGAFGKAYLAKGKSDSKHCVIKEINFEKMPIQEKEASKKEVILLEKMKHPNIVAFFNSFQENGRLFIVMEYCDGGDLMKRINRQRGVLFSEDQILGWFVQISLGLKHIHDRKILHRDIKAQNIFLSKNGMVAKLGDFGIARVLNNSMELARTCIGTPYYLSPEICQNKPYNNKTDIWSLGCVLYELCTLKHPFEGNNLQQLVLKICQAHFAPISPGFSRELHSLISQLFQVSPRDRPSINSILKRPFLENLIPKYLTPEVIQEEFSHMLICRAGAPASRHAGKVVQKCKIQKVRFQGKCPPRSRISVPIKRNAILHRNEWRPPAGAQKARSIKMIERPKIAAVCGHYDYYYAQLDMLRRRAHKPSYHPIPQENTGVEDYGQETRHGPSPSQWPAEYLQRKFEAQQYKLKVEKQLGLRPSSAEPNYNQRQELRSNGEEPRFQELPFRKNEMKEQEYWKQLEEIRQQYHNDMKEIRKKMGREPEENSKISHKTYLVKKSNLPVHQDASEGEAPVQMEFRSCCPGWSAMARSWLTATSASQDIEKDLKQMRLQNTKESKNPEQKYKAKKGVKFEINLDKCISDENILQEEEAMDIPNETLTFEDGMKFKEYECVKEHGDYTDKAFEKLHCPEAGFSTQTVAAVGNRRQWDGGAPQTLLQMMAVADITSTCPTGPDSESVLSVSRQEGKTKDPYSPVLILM

PRKD3 = molecular target: T35, PRKD3 (Homo sapiens, UniProt O94806); assay: KINOMEscan; assay type: binding; settings: read-out: %Ctrl @ 1000 nM
T35 construct: purchased DiscoveRx KINOMEscan
T35 sequence (O94806 whole entry): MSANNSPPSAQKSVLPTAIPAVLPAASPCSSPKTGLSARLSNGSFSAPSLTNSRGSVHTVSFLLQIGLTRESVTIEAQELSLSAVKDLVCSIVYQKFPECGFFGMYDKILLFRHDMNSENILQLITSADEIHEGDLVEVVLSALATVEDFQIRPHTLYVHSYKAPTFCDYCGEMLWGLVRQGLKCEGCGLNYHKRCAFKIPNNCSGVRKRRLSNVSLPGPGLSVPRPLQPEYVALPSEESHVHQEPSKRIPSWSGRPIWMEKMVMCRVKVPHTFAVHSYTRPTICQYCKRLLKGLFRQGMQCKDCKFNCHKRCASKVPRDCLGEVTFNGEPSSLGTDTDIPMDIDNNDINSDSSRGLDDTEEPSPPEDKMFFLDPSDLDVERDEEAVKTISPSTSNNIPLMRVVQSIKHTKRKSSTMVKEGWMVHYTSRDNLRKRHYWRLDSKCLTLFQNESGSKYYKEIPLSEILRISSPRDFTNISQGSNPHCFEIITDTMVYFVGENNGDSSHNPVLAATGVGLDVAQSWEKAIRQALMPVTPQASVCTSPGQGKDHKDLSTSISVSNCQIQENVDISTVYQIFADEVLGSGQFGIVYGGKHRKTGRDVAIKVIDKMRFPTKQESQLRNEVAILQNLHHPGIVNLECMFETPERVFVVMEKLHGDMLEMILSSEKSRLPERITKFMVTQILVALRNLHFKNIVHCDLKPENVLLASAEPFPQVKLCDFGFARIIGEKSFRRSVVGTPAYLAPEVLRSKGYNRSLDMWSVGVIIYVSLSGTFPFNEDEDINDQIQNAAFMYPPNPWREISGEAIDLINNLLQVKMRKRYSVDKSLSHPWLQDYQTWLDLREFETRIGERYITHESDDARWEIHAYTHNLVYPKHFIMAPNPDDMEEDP

[5] = molecular target: T36, JAK1(JH2domain-pseudokinase) (Homo sapiens, UniProt P23458); assay: KINOMEscan; assay type: binding; settings: read-out: %Ctrl @ 1000 nM
T36 construct: JAK1(JH2domain-pseudokinase); purchased DiscoveRx KINOMEscan

EGFR(L861Q) = molecular target: T37, EGFR(L861Q) (Homo sapiens, UniProt P00533, L861Q); assay: KINOMEscan; assay type: binding; settings: read-out: %Ctrl @ 1000 nM
T37 construct: purchased DiscoveRx KINOMEscan

[6] = molecular target: T38, RSK1(Kin.Dom.1-N-terminal) (Homo sapiens, UniProt Q15418); assay: KINOMEscan; assay type: binding; settings: read-out: %Ctrl @ 1000 nM
T38 construct: RSK1(Kin.Dom.1-N-terminal); purchased DiscoveRx KINOMEscan

PCTK1 = molecular target: T39, PCTK1 (Homo sapiens, UniProt Q00536); assay: KINOMEscan; assay type: binding; settings: read-out: %Ctrl @ 1000 nM
T39 construct: purchased DiscoveRx KINOMEscan

[7] = molecular target: T40, ABL1(Q252H)-nonphosphorylated (Homo sapiens, UniProt P00519, Q252H); assay: KINOMEscan; assay type: binding; settings: read-out: %Ctrl @ 1000 nM
T40 construct: purchased DiscoveRx (KINOMEscan service)

SNRK = molecular target: T41, SNRK (Homo sapiens, UniProt Q9NRH2); assay: KINOMEscan; assay type: binding; settings: read-out: %Ctrl @ 1000 nM
T41 construct: purchased DiscoveRx KINOMEscan

For `CCN(C(=O)CO)[C@H]1CN(/C(=N\C#N)Nc2cccc(OC(F)F)c2)N=C1c1ccc(Cl)c(Cl)c1` [(S)-4], the remaining binding at 1 µM (ERK4) was 100%, the remaining binding at 1 µM (PYK2) was 100% and the remaining binding at 1 µM (PIP5K1A) was 70%. It also gave a remaining binding at 1 µM (CSNK2A2) of 56%, a remaining binding at 1 µM (ULK2) of 100% and a remaining binding at 1 µM (INSRR) of 85%. It also gave a remaining binding at 1 µM (EPHB6) of 100%, a remaining binding at 1 µM (CAMK1D) of 90% and a remaining binding at 1 µM (FLT3-autoinhibited) of 100%. It also gave a remaining binding at 1 µM (CSNK1D) of 100%, a remaining binding at 1 µM [1] of 100% and a remaining binding at 1 µM (MET(Y1235D)) of 100%. For the same molecule, the Tolerability [2] was “well tolerated”, the remaining binding at 1 µM (NDR2) was 76% and the remaining binding at 1 µM (NEK2) was 99%. For the same molecule, the remaining binding at 1 µM (YANK3) was 100%, the remaining binding at 1 µM (CSNK1A1L) was 94% and the remaining binding at 1 µM (FLT4) was 87%. The remaining binding at 1 µM (MKNK2) was 96%, the remaining binding at 1 µM (PAK1) was 84% and the remaining binding at 1 µM (IKK-epsilon) was 99%. It also gave a remaining binding at 1 µM (ERBB4) of 93%, a remaining binding at 1 µM (STK35) of 100% and a remaining binding at 1 µM (DCAMKL2) of 93%. The remaining binding at 1 µM (SRMS) was 94%, the remaining binding at 1 µM (HIPK1) was 51% and the remaining binding at 1 µM (SBK1) was 88%. It also gave a remaining binding at 1 µM [3] of 85%, a remaining binding at 1 µM (TNK2) of 96% and a remaining binding at 1 µM (FGFR1) of 59%. It also gave a remaining binding at 1 µM (FLT3(K663Q)) of 100%, a remaining binding at 1 µM (PHKG1) of 97% and a remaining binding at 1 µM (HASPIN) of 100%. The remaining binding at 1 µM [4] was 100%, the remaining binding at 1 µM (NEK5) was 85% and the remaining binding at 1 µM (PRKD3) was 99%. The remaining binding at 1 µM [5] was 100%, the remaining binding at 1 µM (EGFR(L861Q)) was 85% and the remaining binding at 1 µM [6] was 100%. The remaining binding at 1 µM (PCTK1) was 98%, the remaining binding at 1 µM [7] was 66% and the remaining binding at 1 µM (SNRK) was 85%.
